Target: T1, Human orexin receptor type 2 (Homo sapiens, UniProt O43614)
T1 sequence (O43614 1-444): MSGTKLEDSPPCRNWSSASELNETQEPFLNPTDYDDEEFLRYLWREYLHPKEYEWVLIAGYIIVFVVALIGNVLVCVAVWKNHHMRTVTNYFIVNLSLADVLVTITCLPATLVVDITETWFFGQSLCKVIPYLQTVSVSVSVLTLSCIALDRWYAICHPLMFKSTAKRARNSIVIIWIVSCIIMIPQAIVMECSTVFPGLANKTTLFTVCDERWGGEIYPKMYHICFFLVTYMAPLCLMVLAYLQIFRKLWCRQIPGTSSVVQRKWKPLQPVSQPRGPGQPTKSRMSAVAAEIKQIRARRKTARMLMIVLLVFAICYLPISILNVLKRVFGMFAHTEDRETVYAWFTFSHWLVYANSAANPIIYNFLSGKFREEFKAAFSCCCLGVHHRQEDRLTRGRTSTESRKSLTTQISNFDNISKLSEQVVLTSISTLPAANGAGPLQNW
Test: Test Example 1: agonist activity for orexin receptor type 2 (aequorin luminescence, intracellular calcium mobilization)
Conditions: compound 10 μm; CHO cells transiently expressing human orexin receptor type 2 and apoaequorin; relative percentage of luminescence for the luminescence (100%) of Orexin A (100 μM)

| Structure (SMILES) | Agonist Activity (%) |
| --- | --- |
| CC(CF)N1CCC(c2cccc(Cl)c2NC(=O)N2CCC(C)(c3noc(C4CC4)n3)CC2)CC1 (centres unmarked) [Example 143, N-{2-chloro-6-[1-(1-fluoropropan-2-yl)piperidin-4-yl]phenyl}-4-(5-cyclopropyl-1,2,4-oxadiazol-3-yl)-4-methylpiperidine-1-carboxamide] | 109 |
| COC(=O)c1cccc(N2CCN(C(C)C)CC2)c1NC(=O)N1CCC(c2ccc(C)cc2)CC1 [Example 38, methyl 2-{[4-(4-methylphenyl)piperidine-1-carbonyl]amino}-3-[4-(propan-2-yl)piperazin-1-yl]benzoate] | 119 |
| COc1cccc(N2CCN(C(C)C)CC2)c1NC(=O)N1CCC(C)(c2noc(C)n2)CC1 [Example 23, N-{2-methoxy-6-[4-(propan-2-yl)piperazin-1-yl]phenyl}-4-methyl-4-(5-methyl-1,2,4-oxadiazol-3-yl)piperidine-1-carboxamide] | 92 |
| Cc1ncc(C2(C)CCN(C(=O)Nc3c(Cl)cccc3N3CCN(C(C)C)CC3)CC2)o1 [Example 92, N-{2-chloro-6-[4-(propan-2-yl)piperazin-1-yl]phenyl}-4-methyl-4-(2-methyl-1,3-oxazol-5-yl)piperidine-1-carboxamide] | 196 |
| CC(C)N1CCN(c2cccc(Cl)c2NC(=O)N2CCC(C)(c3noc(C4CC(F)(F)C4)n3)CC2)CC1 [Example 76, N-{2-chloro-6-[4-(propan-2-yl)piperazin-1-yl]phenyl}-4-[5-(3,3-difluorocyclobutyl)-1,2,4-oxadiazol-3-yl]-4-methylpiperidine-1-carboxamide] | 148 |
| Cc1ccc(C2CCN(C(=O)Nc3ccccc3N3CCN(C(C)C)CC3)CC2)cc1 [Example 121] | 130 |
| CC(C)N1CCN(c2cccc(F)c2NC(=O)N2CCC(C)(c3noc(C(F)(F)F)n3)CC2)CC1 [Example 24, N-{2-fluoro-6-[4-(propan-2-yl)piperazin-1-yl]phenyl}-4-methyl-4-[5-(trifluoromethyl)-1,2,4-oxadiazol-3-yl]piperidine-1-carboxamide] | 127 |
| Cc1cccc(C2CCN(C(=O)Nc3c(F)cccc3N3CCN(C(C)C)CC3)CC2)c1 [Example 29, N-{2-fluoro-6-[4-(propan-2-yl)piperazin-1-yl]phenyl}-4-(3-methylphenyl)piperidine-1-carboxamide] | 77 |
| Cc1ccccc1C1CCN(C(=O)Nc2c(F)cccc2N2CCN(C(C)C)CC2)CC1 [Example 37, N-{2-fluoro-6-[4-(propan-2-yl)piperazin-1-yl]phenyl}-4-(2-methylphenyl)piperidine-1-carboxamide] | 47 |
| CC(C)N1CCN(c2cccc(Cl)c2NC(=O)N2CCC(C)(c3noc([C@@H]4C[C@@H]4C)n3)CC2)CC1 (racemic) [Example 104, Rac-N-{2-chloro-6-[4-(propan-2-yl)piperazin-1-yl]phenyl}-4-methyl-4-{5-[(1R,2S)-2-methylcyclopropyl]-1,2,4-oxadiazol-3-yl}piperidine-1-carboxamide] | 180 |
| CC(C)N1CCN(c2cccc(Cl)c2NC(=O)N2CCC(C)(c3noc(C4CCC4)n3)CC2)CC1 [Example 78, N-{2-chloro-6-[4-(propan-2-yl)piperazin-1-yl]phenyl}-4-(5-cyclobutyl-1,2,4-oxadiazol-3-yl)-4-methylpiperidine-1-carboxamide] | 170 |
| Cc1ccc(C2CCN(C(=O)Nc3ccccc3[C@@H]3CN[C@@H](C(C)C)CO3)CC2)cc1 [Example 166, 4-(4-Methylphenyl)-N-{2-[(2R,5S)-5-(propan-2-yl)morpholin-2-yl]phenyl}piperidine-1-carboxamide] | 72 |
| COc1cccc(C2=CCN(C(C)C)CC2)c1NC(=O)N1CCC(c2ccc(C)cc2)CC1 [Example 47, N-{2-methoxy-6-[1-(propan-2-yl)-1,2,3,6-tetrahydropyridin-4-yl]phenyl}-4-(4-methylphenyl)piperidine-1-carboxamide] | 165 |
| Cc1ccc(C2CCN(C(=O)Nc3c(F)cccc3N3CC4CCC(C3)N4C(C)C)CC2)cc1 [Example 154, N-{2-fluoro-6-[8-(propan-2-yl)-3,8-diazabicyclo[3.2.1]octan-3-yl]phenyl}-4-(4-methylphenyl)piperidine-1-carboxamide] | 40 |
| Cc1ccc(C2CCN(C(=O)Nc3c(F)cccc3C3=CCN(C(C)C)CC3)CC2)cc1 [Example 42, N-{2-fluoro-6-[1-(propan-2-yl)-1,2,3,6-tetrahydropyridin-4-yl]phenyl}-4-(4-methylphenyl)piperidine-1-carboxamide] | 128 |
| CCN1CCN(c2ccccc2NC(=O)N2CCC(c3cc(OC)cc(OC)c3)CC2)CC1 [Example 3, 4-(3,5-dimethoxyphenyl)-N-[2-(4-ethylpiperazin-1-yl)phenyl]piperidine-1-carboxamide] | 27 |
| CCN1CCCN(c2ccccc2NC(=O)N2CCC(C)(c3noc(C4CC4)n3)CC2)CC1 [Example 156, 4-(5-cyclopropyl-1,2,4-oxadiazol-3-yl)-N-[2-(4-ethyl-1,4-diazepan-1-yl)phenyl]-4-methylpiperidine-1-carboxamide] | 38 |
| Cc1ccc(C2CCN(C(=O)Nc3ccccc3N3CCN(C(C)C)C(C)C3)CC2)cc1 (racemic) [Example 28, Rac-4-(4-methylphenyl)-N-{2-[3-methyl-4-(propan-2-yl)piperazin-1-yl]phenyl}piperidine-1-carboxamide] | 104 |
| COc1cccc(N2CCN(C(C)C)CC2)c1NC(=O)N1CCC(c2ccc(C)cc2)CC1 [Example 8, N-{2-methoxy-6-[4-(propan-2-yl)piperazin-1-yl]phenyl}-4-(4-methylphenyl)piperidine-1-carboxamide] | 145 |
| COCC(C)N1CCN(c2ccccc2NC(=O)N2CCC(c3ccc(C)cc3)CC2)CC1 (centres unmarked) [Example 126, N-{2-[4-(1-methoxypropan-2-yl)piperazin-1-yl]phenyl}-4-(4-methylphenyl)piperidine-1-carboxamide] | 139 |
| CCN1CCCN(c2ccccc2NC(=O)N2CCC(c3ccc(C)cc3)CC2)CC1 [Example 153, N-[2-(4-ethyl-1,4-diazepan-1-yl)phenyl]-4-(4-methylphenyl)piperidine-1-carboxamide] | 54 |
| CC(C)c1ncc(C2(C)CCN(C(=O)Nc3c(Cl)cccc3N3CCN(C(C)C)CC3)CC2)o1 [Example 93, N-{2-chloro-6-[4-(propan-2-yl)piperazin-1-yl]phenyl}-4-methyl-4-[2-(propan-2-yl)-1,3-oxazol-5-yl]piperidine-1-carboxamide] | 203 |
| COC1(c2nc(C3(C)CCN(C(=O)Nc4c(Cl)cccc4N4CCN(C(C)C)CC4)CC3)no2)CC1 [Example 108, N-{2-chloro-6-[4-(propan-2-yl)piperazin-1-yl]phenyl}-4-[5-(1-methoxycyclopropyl)-1,2,4-oxadiazol-3-yl]-4-methylpiperidine-1-carboxamide] | 157 |

Source: patent US20240308960A1 (Sumitomo Pharma Co., Ltd., priority 2021, published 2024)
